Measured values from PubChem BioAssay AID1259407 (Chemical Carcinogenesis Research Information System (CCRIS), 2018).
Activity calls are given as the source filed them. The rule behind the calls is not given here.

System: CCRIS mutagenicity, Ames/micronucleus/aberration tests
Assay: CCRIS mutagenicity studies
[1] = Test System: AMES SALMONELLA TYPHIMURIUM, Strain/Indicator: TA98, Metabolic Activation: HAMSTER, LIVER, S-9, AROCLOR 1254 (10%), Method: PREINCUBATION
[2] = Test System: AMES SALMONELLA TYPHIMURIUM, Strain/Indicator: TA98, Metabolic Activation: NONE, Method: PREINCUBATION
[3] = Test System: AMES SALMONELLA TYPHIMURIUM, Strain/Indicator: TA98, Metabolic Activation: NONE, Method: STANDARD PLATE
[4] = Test System: AMES SALMONELLA TYPHIMURIUM, Strain/Indicator: TA98, Metabolic Activation: RAT, LIVER, S-9, AROCLOR 1254 (10%), Method: PREINCUBATION
[5] = Test System: AMES SALMONELLA TYPHIMURIUM, Strain/Indicator: TA100, Metabolic Activation: HAMSTER, LIVER, S-9, AROCLOR 1254 (10%), Method: PREINCUBATION
[6] = Test System: AMES SALMONELLA TYPHIMURIUM, Strain/Indicator: TA100, Metabolic Activation: NONE, Method: PREINCUBATION
[7] = Test System: AMES SALMONELLA TYPHIMURIUM, Strain/Indicator: TA100, Metabolic Activation: NONE, Method: STANDARD PLATE
[8] = Test System: AMES SALMONELLA TYPHIMURIUM, Strain/Indicator: TA100, Metabolic Activation: RAT, LIVER, S-9, AROCLOR 1254 (10%), Method: PREINCUBATION
[9] = Test System: AMES SALMONELLA TYPHIMURIUM, Strain/Indicator: TA1535, Metabolic Activation: HAMSTER, LIVER, S-9, AROCLOR 1254 (10%), Method: PREINCUBATION
[10] = Test System: AMES SALMONELLA TYPHIMURIUM, Strain/Indicator: TA1535, Metabolic Activation: NONE, Method: PREINCUBATION
[11] = Test System: AMES SALMONELLA TYPHIMURIUM, Strain/Indicator: TA1535, Metabolic Activation: NONE, Method: STANDARD PLATE
[12] = Test System: AMES SALMONELLA TYPHIMURIUM, Strain/Indicator: TA1535, Metabolic Activation: RAT, LIVER, S-9, AROCLOR 1254 (10%), Method: PREINCUBATION
[13] = Test System: AMES SALMONELLA TYPHIMURIUM, Strain/Indicator: TA1537, Metabolic Activation: HAMSTER, LIVER, S-9, AROCLOR 1254 (10%), Method: PREINCUBATION
[14] = Test System: AMES SALMONELLA TYPHIMURIUM, Strain/Indicator: TA1537, Metabolic Activation: NONE, Method: PREINCUBATION
[15] = Test System: AMES SALMONELLA TYPHIMURIUM, Strain/Indicator: TA1537, Metabolic Activation: RAT, LIVER, S-9, AROCLOR 1254 (10%), Method: PREINCUBATION
[16] = Test System: AMES SALMONELLA TYPHIMURIUM, Strain/Indicator: TA98, Metabolic Activation: RAT, LIVER, S-9, AROCLOR 1254, Method: STANDARD PLATE
[17] = Test System: AMES SALMONELLA TYPHIMURIUM, Strain/Indicator: TA100, Metabolic Activation: RAT, LIVER, S-9, AROCLOR 1254, Method: STANDARD PLATE
[18] = Test System: AMES SALMONELLA TYPHIMURIUM, Strain/Indicator: TA1535, Metabolic Activation: RAT, LIVER, S-9, AROCLOR 1254, Method: STANDARD PLATE
[19] = Test System: AMES SALMONELLA TYPHIMURIUM, Strain/Indicator: TA1537, Metabolic Activation: NONE, Method: STANDARD PLATE
[20] = Test System: AMES SALMONELLA TYPHIMURIUM, Strain/Indicator: TA1537, Metabolic Activation: RAT, LIVER, S-9, AROCLOR 1254, Method: STANDARD PLATE
[21] = Test System: AMES SALMONELLA TYPHIMURIUM, Strain/Indicator: TA1538, Metabolic Activation: NONE, Method: STANDARD PLATE
[22] = Test System: AMES SALMONELLA TYPHIMURIUM, Strain/Indicator: TA1538, Metabolic Activation: RAT, LIVER, S-9, AROCLOR 1254, Method: STANDARD PLATE

Nc1n[nH]c(N)n1
mutagenic call (Test System: AMES SALMONELLA TYPHIMURIUM, Strain/Indicator: TA97, Metabolic Activation: NONE, Method: STANDARD PLATE): inactive; negative | mutagenic call (Test System: AMES SALMONELLA TYPHIMURIUM, Strain/Indicator: TA97, Metabolic Activation: RAT, LIVER, S-9, AROCLOR, Method: STANDARD PLATE): inactive; negative | mutagenic call [1]: inactive; negative | mutagenic call [2]: inactive; negative | mutagenic call [3]: inactive; negative | mutagenic call [4]: inactive; negative | mutagenic call (Test System: AMES SALMONELLA TYPHIMURIUM, Strain/Indicator: TA98, Metabolic Activation: RAT, LIVER, S-9, AROCLOR, Method: STANDARD PLATE): inactive; negative | mutagenic call [5]: inactive; negative | mutagenic call [6]: inactive; negative | mutagenic call [7]: inactive; negative | mutagenic call [8]: inactive; negative | mutagenic call (Test System: AMES SALMONELLA TYPHIMURIUM, Strain/Indicator: TA100, Metabolic Activation: RAT, LIVER, S-9, AROCLOR, Method: STANDARD PLATE): inactive; negative | mutagenic call (Test System: AMES SALMONELLA TYPHIMURIUM, Strain/Indicator: TA102, Metabolic Activation: NONE, Method: STANDARD PLATE): active; positive | mutagenic call (Test System: AMES SALMONELLA TYPHIMURIUM, Strain/Indicator: TA102, Metabolic Activation: RAT, LIVER, S-9, AROCLOR 1254, Method: STANDARD PLATE): active; positive | mutagenic call [9]: inactive; negative | mutagenic call [10]: inactive; negative | mutagenic call [11]: inactive; negative | mutagenic call [12]: inactive; negative | mutagenic call (Test System: AMES SALMONELLA TYPHIMURIUM, Strain/Indicator: TA1535, Metabolic Activation: RAT, LIVER, S-9, AROCLOR, Method: STANDARD PLATE): inactive; negative | mutagenic call [13]: inactive; negative | mutagenic call [14]: inactive; negative | mutagenic call [15]: inactive; negative | mutagenic call (Test System: UDS RODENT HEPATOCYTES, Strain/Indicator: THY INCORP (NON-S-PHASE), Metabolic Activation: NONE, Method: AUTORADIOGRAPHY): inactive; negative

ClCc1cc2c3ccccc3cc3ccc4cccc1c4c32
mutagenic call [3]: active; positive | mutagenic call [7]: active; positive

Cc1c2cccc(C)c2nc2c1ccc1ccccc12
mutagenic call (Test System: AMES SALMONELLA TYPHIMURIUM, Strain/Indicator: TA97A, Metabolic Activation: NONE, Method: PREINCUBATION): inactive; negative | mutagenic call [2]: active; positive | mutagenic call [6]: inactive; negative | mutagenic call (Test System: AMES SALMONELLA TYPHIMURIUM, Strain/Indicator: TA102, Metabolic Activation: NONE, Method: PREINCUBATION): active; positive

C=C(C)C(=O)OCC
mutagenic call [1]: inactive; negative | mutagenic call [2]: inactive; negative | mutagenic call [3]: inactive; negative | mutagenic call [4]: inactive; negative | mutagenic call [16]: inactive; negative | mutagenic call (Test System: AMES SALMONELLA TYPHIMURIUM, Strain/Indicator: TA98, Metabolic Activation: RAT, LIVER, S-9, SODIUM PHENOBARBITAL, Method: STANDARD PLATE): inactive; negative | mutagenic call [5]: inactive; negative | mutagenic call [6]: inactive; negative | mutagenic call [7]: inactive; negative | mutagenic call [8]: inactive; negative | mutagenic call [17]: inactive; negative | mutagenic call (Test System: AMES SALMONELLA TYPHIMURIUM, Strain/Indicator: TA100, Metabolic Activation: RAT, LIVER, S-9, SODIUM PHENOBARBITAL, Method: STANDARD PLATE): inactive; negative | mutagenic call [9]: inactive; negative | mutagenic call [10]: inactive; negative | mutagenic call [11]: inactive; negative | mutagenic call [12]: inactive; negative | mutagenic call [18]: inactive; negative | mutagenic call (Test System: AMES SALMONELLA TYPHIMURIUM, Strain/Indicator: TA1535, Metabolic Activation: RAT, LIVER, S-9, SODIUM PHENOBARBITAL, Method: STANDARD PLATE): inactive; negative | mutagenic call [13]: inactive; negative | mutagenic call [14]: inactive; negative | mutagenic call [19]: inactive; negative | mutagenic call [15]: inactive; negative | mutagenic call [20]: inactive; negative | mutagenic call (Test System: AMES SALMONELLA TYPHIMURIUM, Strain/Indicator: TA1537, Metabolic Activation: RAT, LIVER, S-9, SODIUM PHENOBARBITAL, Method: STANDARD PLATE): inactive; negative | mutagenic call [21]: inactive; negative | mutagenic call [22]: inactive; negative | mutagenic call (Test System: AMES SALMONELLA TYPHIMURIUM, Strain/Indicator: TA1538, Metabolic Activation: RAT, LIVER, S-9, SODIUM PHENOBARBITAL, Method: STANDARD PLATE): inactive; negative

CC(=O)O[C@H]1[C@@H]2CC(C)(C)CC2=C(C=O)[C@]2(C=O)C[C@]12C
mutagenic call [3]: inactive; negative | mutagenic call [7]: inactive; negative | mutagenic call (Test System: AMES SALMONELLA TYPHIMURIUM, Strain/Indicator: TA2637, Metabolic Activation: NONE, Method: STANDARD PLATE): inactive; negative

Fc1ccccc1-c1ccccc1
mutagenic call (Test System: AMES SALMONELLA TYPHIMURIUM, Strain/Indicator: TA98, Metabolic Activation: HAMSTER, LIVER, S-9, AROCLOR 1254, Method: STANDARD PLATE): inactive; negative | mutagenic call [3]: inactive; negative | mutagenic call [16]: inactive; negative | mutagenic call (Test System: AMES SALMONELLA TYPHIMURIUM, Strain/Indicator: TA100, Metabolic Activation: HAMSTER, LIVER, S-9, AROCLOR 1254, Method: STANDARD PLATE): inactive; negative | mutagenic call [7]: inactive; negative | mutagenic call [17]: inactive; negative | mutagenic call (Test System: AMES SALMONELLA TYPHIMURIUM, Strain/Indicator: TA1535, Metabolic Activation: HAMSTER, LIVER, S-9, AROCLOR 1254, Method: STANDARD PLATE): inactive; negative | mutagenic call [11]: inactive; negative | mutagenic call [18]: inactive; negative | mutagenic call (Test System: AMES SALMONELLA TYPHIMURIUM, Strain/Indicator: TA1537, Metabolic Activation: HAMSTER, LIVER, S-9, AROCLOR 1254, Method: STANDARD PLATE): inactive; negative | mutagenic call [19]: inactive; negative | mutagenic call [20]: inactive; negative | mutagenic call (Test System: AMES SALMONELLA TYPHIMURIUM, Strain/Indicator: TA1538, Metabolic Activation: HAMSTER, LIVER, S-9, AROCLOR 1254, Method: STANDARD PLATE): inactive; negative | mutagenic call [21]: inactive; negative | mutagenic call [22]: inactive; negative | mutagenic call (Test System: Mouse lymphoma, Strain/Indicator: L5178Y (tk+/tk-), Metabolic Activation: None, Method: Suspension/plate): inactive; negative | mutagenic call (Test System: Mouse lymphoma, Strain/Indicator: L5178Y (tk+/tk-), Metabolic Activation: Rat, Liver, S-9, Aroclor 1254, Method: Suspension/plate): inactive; negative
